Test results published in US6410249B1, “Odorant receptors” (priority 1999, dated 2002).
Entries after “also recorded” stand apart in the source; their conditions may differ. Where two headings read alike, the source gives them in different places.

How the values were obtained:
receptor 5.24 [1] = biological target: T1, receptor 5.24 (Carassius auratus, UniProt Q9PW88); test: biochemical; type: binding; conditions: for binding to receptor 5.24, in words: comparative binding studies
T1 construct: The receptor 5.24 full length cDNA detects 1-2 bands in genomic DNA blots; expressed in transfected cells; host or cells: HEK 293 cells expressing SV40 large T antigen (293-TSA)
T1 sequence (Q9PW88 25-877): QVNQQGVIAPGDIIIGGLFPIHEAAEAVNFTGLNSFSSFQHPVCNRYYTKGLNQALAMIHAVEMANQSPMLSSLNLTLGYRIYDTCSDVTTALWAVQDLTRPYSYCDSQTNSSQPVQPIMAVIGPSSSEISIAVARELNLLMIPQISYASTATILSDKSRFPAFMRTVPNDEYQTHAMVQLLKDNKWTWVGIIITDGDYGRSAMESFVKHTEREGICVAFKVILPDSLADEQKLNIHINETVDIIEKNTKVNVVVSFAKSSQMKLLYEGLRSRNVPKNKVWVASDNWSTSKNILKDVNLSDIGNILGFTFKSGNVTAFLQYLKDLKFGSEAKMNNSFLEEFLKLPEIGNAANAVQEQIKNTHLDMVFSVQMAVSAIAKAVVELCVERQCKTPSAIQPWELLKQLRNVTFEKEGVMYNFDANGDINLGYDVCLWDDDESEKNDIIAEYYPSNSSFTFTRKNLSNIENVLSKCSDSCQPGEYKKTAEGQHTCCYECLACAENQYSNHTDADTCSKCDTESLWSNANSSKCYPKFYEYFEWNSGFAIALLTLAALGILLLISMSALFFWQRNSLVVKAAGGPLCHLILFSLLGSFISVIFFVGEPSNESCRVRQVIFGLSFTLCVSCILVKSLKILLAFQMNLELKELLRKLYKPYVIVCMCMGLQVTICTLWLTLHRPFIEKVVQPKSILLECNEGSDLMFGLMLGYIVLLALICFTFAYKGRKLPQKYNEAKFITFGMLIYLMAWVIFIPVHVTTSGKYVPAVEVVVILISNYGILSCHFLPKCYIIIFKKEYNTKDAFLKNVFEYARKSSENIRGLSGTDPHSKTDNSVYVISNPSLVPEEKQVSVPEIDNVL
Method: Structure-Activity Properties of Compounds Interacting with the Cloned Goldfish Amino Acid Odorant Receptor. An understanding of how odorant receptors are used to encode olfactory information requires a characterization of the odorant specificities of individual receptor types. We therefore wished to determine the relative specificity of receptor 5.24 for structurally related ligands. […] Briefly, 3H-arginine binding to membranes from receptor 5.24-expressing HEK 293 cells was assayed in the absence or presence of varying concentrations of competitor ligands.
Mammalian Cell Culture and DNA Transfections. For cell transfections, the receptor 5.24 cDNA insert was subcloned into two expression vectors: CMVI, which utilizes a human cytomegalovirus (CMV) immediate early promoter-enhancer plus the CMV intron A sequence to drive expression, and 608RX-2.2L, which is similar to CMVI except the cDNA insert is followed by an internal ribosome entry site (IRES)—enhanced green fluorescent protein (EGFP) coding sequence; 608RX-2.2L also contains a puromycin resistance gene. For transient assays, HEK 293 cells expressing the SV40 large T antigen (293 TSA cells) were transfected with the CMVI-receptor 5.24 or CMVI control plasmid using lipofectamine (Life Technologies) and harvested at 48 hours for membrane preparations. For stable cell lines, 293-TSA cells were transfected with the 608RX-2.2L-receptor 5.24 plasmid or a control 608RX-2.2L plasmid and selected in puromycin. Colonies showing high levels of EGFP fluorescence (as judged by epifluorescence microscopy) were picked, expanded, and screened for 3H-L-arginine binding (see below).
Membrane Preparations and Ligand Binding Assays. Membranes for ligand binding assays were prepared by washing confluent cells three times with phosphate buffered saline (PBS), detaching cells with a PBS-based enzyme-free dissociation solution, and resuspending cells in ice-cold 5.0 mM Hepes, pH 7.4, 1.0 mM EDTA, 1.0 μg/ml leupeptin, 0.5 mM PMSF. All subsequent manipulations were performed on ice. After a 30 min incubation, the cell suspension was homogenized and centrifuged at 100,000×g for 30 min. Cell membrane pellets were washed twice by resuspension and centrifugation in binding buffer (20 mM Hepes, pH 7.4, 1.0 mM EDTA, 2.0 mM MgCl2, 1.0 μg/ml leupeptin, 0.5 mM PMSF), resuspended in binding buffer, and frozen at −80° C.
Saturation binding assays were performed using 20-25 μg of membrane protein in a final volume of 100 μl binding buffer and increasing concentrations of [2,3-3H] L-arginine (specific activity=40 Ci/mmol; Dupont NEN). Non-specific binding was measured in the presence of 500 μM unlabeled L-arginine. Competition assays were performed with 500 nM [2,3-3H] L-arginine and increasing concentrations of competitor ligands. All incubations were performed at 4° C. for 60 min and terminated by rapid filtration through Whatman GF/C filters pretreated with ice cold 0.1% polyethyleneimine. Filters were washed three times with 4.0 ml ice cold 20 mM Hepes, pH 7.4, and retained radioactivity was measured by scintillation counting.

receptor 5.24 [2] = biological target: T1, receptor 5.24; test: evoked currents in Xenopus oocytes expressing receptor 5.24 (two-electrode voltage clamp); type: cell-based, goldfish
Text: Identification by Expression Cloning of a cDNA Encoding a Goldfish Odorant Receptor. RNA was synthesized from pools of goldfish olfactory cDNA clones (900 individual clones per pool) and injected into Xenopus oocytes together with synthetic RNAs encoding GIRK and Gaolf. Oocytes were then screened for responses upon exposure to odorant cocktails containing amino acids, bile acids, or sex pheromones. […] The response to amino acids was biphasic, beginning with an oscillating inward current above the basal inward K+ current, followed by a decline in inward current to below the basal level. Such a biphasic effect is thought to be caused by Gaq-mediated activation of phospholipase C (responsible for the intial inward current via IP3) and protein kinase C (leading to suppression of the K+ current through phosphorylation of GIRK channel subunits) (Sharon et al., 1997).
Iterative subdivision of pool 19 by sib-selection allowed the isolation of a single clone encoding a receptor, designated receptor 5.24.
Oocytes were removed from anesthetized Xenopus laevis and treated with collagenase. Forty nanograms of cRNA from each cDNA library pool (˜40 pg cRNA/clone) was injected per oocyte, together with cRNAs encoding Gaolf and the GIRK subunits Kir 3.1 and Kir 3.4 (˜30 pg each). Approximately 30 pools were assayed before these primary screens were halted. Injected oocytes were incubated at 17° C. for over 80 hours prior to electrophysiological recordings. Recordings were performed by two-electrode voltage clamping using an Axoclamp-2A amplifier (Axon Instruments) or a Dagan CA-1 amplifier (Dagan Corp.). Data acquisition and analysis were performed using pCLAMP software (Axon Instruments). Membrane potential was held at −80 mV. For trials involving GIRK, oocytes were first perfused with Na-MBSH (88 mM NaCl, 1 mM KCl, 2.4 mM NaHCO3, 10 mM Hepes, pH 7.5, 0.82 mM MgSO4[7H2O], 0.33 mM Ca[NO3]2[4H2O], 0.41 mM CaCl2[2H2O]), and then switched into K-MBSH, which contains elevated K+ (88 mM KCl, 1 mM NaCl) until the basal current had stabilized (˜45 seconds) before challenging with agonist. Recordings on oocytes injected with receptor 5.24 in the absence of Gaolf and/or GIRK subunits were performed in Na-MBSH. Oocytes were exposed to solutions containing different agonists by switching bathing solutions with an 8 channel valve (Hamilton).

[3] = read-out: Ki (binding affinity), displacement of 3H-L-arginine from membranes of HEK 293 cells expressing receptor 5.24
[4] = 3H-arginine displacement, read-out: Ki
[5] = displacement of 3H-L-arginine from membranes of HEK 293 cells expressing receptor 5.24, read-out: Ki (binding affinity)

N=C(N)NCCCCN [Agmatine]
Ki (receptor 5.24 [1]): > 1000 µM
binding to receptor 5.24, in words (receptor 5.24 [1]): displaces 3H-arginine very poorly; also recorded: essentially no binding
Ki (receptor 5.24 [1]; [3]): > 1000 µM

NCCCCCN [Cadaverine]
Ki (receptor 5.24 [1]; [4]): > 1000 µM
binding to receptor 5.24, in words (receptor 5.24 [1]): essentially no binding
Ki (receptor 5.24 [1]; [5]): > 1000 µM

NCCC(=O)N[C@@H](Cc1cnc[nH]1)C(=O)O [Carnosine]
Ki (receptor 5.24 [1]; [4]): > 1000 µM
binding to receptor 5.24, in words (receptor 5.24 [1]): no specific interactions
Ki (receptor 5.24 [1]; [5]): > 1000 µM

C[C@H](N)C(=O)O [L-Alanine]
Ki (receptor 5.24 [1]; [5]): 5.6 µM
activation of receptor 5.24 (evoked currents), in words (receptor 5.24 [2]): smaller responses

NC(=O)C[C@H](N)C(=O)O [L-Asparagine]
Ki (receptor 5.24 [1]; [5]): 2.1 µM

N[C@@H](CC(=O)O)C(=O)O [L-Aspartate]
Ki (receptor 5.24 [1]): 27 µM

NC(=O)NCCC[C@H](N)C(=O)O [L-Citruline]
Ki (receptor 5.24 [1]; [5]): 0.96 µM

N[C@@H](CS)C(=O)O [L-Cysteine]
Ki (receptor 5.24 [1]; [5]): 0.53 µM

N[C@@H](CCC(=O)O)C(=O)O [L-Glutamate]
fold decrease in affinity / displacement relative to arginine or lysine (receptor 5.24 [1]; 3H-arginine displacement): approximately 80 fold
Ki (receptor 5.24 [1]; [5]): 6.7 µM
activation of receptor 5.24 (evoked currents), in words (receptor 5.24 [2]; listed as Glutamate): does not appear to activate
activation of receptor 5.24 (evoked currents), in words (receptor 5.24 [2]; listed as glutamate): little or no response; also recorded: not activated

NC(=O)CC[C@H](N)C(=O)O [L-Glutamine]
Ki (receptor 5.24 [1]; [5]): 0.32 µM

NCC(=O)O [L-Glycine]
Ki (receptor 5.24 [1]; [5]): 3.9 µM

N[C@@H](Cc1c[nH]cn1)C(=O)O [L-Histidine]
Ki (receptor 5.24 [1]): 13 µM
binding to receptor 5.24, in words (receptor 5.24 [1]): low affinities
activation of receptor 5.24 (evoked currents), in words (receptor 5.24 [2]): little or no response

N=C(N)NCCCC[C@H](N)C(=O)O [L-Homoarginine]
Ki (receptor 5.24 [1]): 1.63 µM

CC[C@H](C)[C@H](N)C(=O)O [L-Isoleucine]
Ki (receptor 5.24 [1]; [5]): 2.2 µM
activation of receptor 5.24 (evoked currents), in words (receptor 5.24 [2]): smaller responses

CC(C)C[C@H](N)C(=O)O [L-Leucine]
Ki (receptor 5.24 [1]; [5]): 4.4 µM

CSCC[C@H](N)C(=O)O [L-Methionine]
Ki (receptor 5.24 [1]; [5]): 0.81 µM
activation of receptor 5.24 (evoked currents), in words (receptor 5.24 [2]): smaller responses

COC(=O)[C@@H](N)CCCNC(=N)N[N+](=O)[O-] [L-NAME]
binding to receptor 5.24, in words (receptor 5.24 [1]): modest affinity
Ki (receptor 5.24 [1]; [5]): 1.02 µM

NCCC[C@H](N)C(=O)O [L-Ornithine]
Ki (receptor 5.24 [1]; [4]): 1 µM

N[C@@H](Cc1ccccc1)C(=O)O [L-Phenylalanine]
binding to receptor 5.24, in words (receptor 5.24 [1]): low affinities
Ki (receptor 5.24 [1]; [5]): 5.8 µM
activation of receptor 5.24 (evoked currents), in words (receptor 5.24 [2]): little or no response

O=C(O)[C@@H]1CCCN1 [L-Proline]
binding to receptor 5.24, in words (receptor 5.24 [1]): low affinities
Ki (receptor 5.24 [1]; [5]): 58 µM

C[C@@H](O)[C@H](N)C(=O)O [L-Threonine]
Ki (receptor 5.24 [1]; [5]): 3.2 µM
activation of receptor 5.24 (evoked currents), in words (receptor 5.24 [2]): smaller responses

N[C@@H](Cc1c[nH]c2ccccc12)C(=O)O [L-Tryptophan]
binding to receptor 5.24, in words (receptor 5.24 [1]): low affinities
Ki (receptor 5.24 [1]; [5]): 4.1 µM
activation of receptor 5.24 (evoked currents), in words (receptor 5.24 [2]): little or no response

N[C@@H](Cc1ccc(O)cc1)C(=O)O [L-Tyrosine]
Ki (receptor 5.24 [1]): 16 µM
binding to receptor 5.24, in words (receptor 5.24 [1]): low affinities
activation of receptor 5.24 (evoked currents), in words (receptor 5.24 [2]): little or no response

CC(C)[C@H](N)C(=O)O [L-Valine]
Ki (receptor 5.24 [1]; [5]): 6.2 µM

NCCCCN [Putrescine]
Ki (receptor 5.24 [1]; [5]): > 1000 µM

NCCS(=O)(=O)O [Taurine]
Ki (receptor 5.24 [1]; [4]): > 1000 µM
binding to receptor 5.24, in words (receptor 5.24 [1]): no specific interactions
Ki (receptor 5.24 [1]; [5]): > 1000 µM

[Ca+2] [calcium]
activation of receptor 5.24 (evoked currents), in words (receptor 5.24 [2]): not activated

NCCCC(=O)O [γ-Aminobutyric Acid (GABA), γ-Aminobutyric Acid]
Ki (receptor 5.24 [1]): > 1000 µM
binding to receptor 5.24, in words (receptor 5.24 [1]): no specific interactions
Ki (receptor 5.24 [1]; [3]): > 1000 µM
